Assay results published in US20170166870A1, “HUMAN HEPATIC 3D CO-CULTURE MODEL AND USES THEREOF” (Vrije Universiteit Brussel, priority 2014, published 2017).
Like-named read-outs stand apart in the source and are kept apart here.

Key:
[1] = system: hepatic stellate cells isolated from mice; assay: Acute and chronic APAP liver injury model, HSC activation markers and collagen deposition; format: in vivo, mouse
Description: Male balbC and C57BL/6 mice were used for all experiments; animals were housed in a controlled environment with free access to chow and water. The experimental protocol was approved by the institutional Animal Care and Use Committee of Vrije Universiteit Brussel, permit number 14-212-2, and National Institutes of Health principles of laboratory animal care (NIH publication 86-23, revised 1995) were followed. Acute and chronic models for liver fibrosis were used on mice of age 7-8 weeks. Acute injury was induced by a single dose of Acetaminophen (APAP) of 50; 150; 300 or 500 mg APAP/kg weight. Chronic injury was induced by repeated injections of APAP twice per week for 4 weeks. Hepatic stellate cells were collected at the end of the treatment. Isolation of stellate cells was done using FACS, based on UV-positivity. After isolation cells were not cultured, but immediately used for mRNA analysis. […] For quantitative real-time polymerase chain reaction (qPCR), GoTaq QPCR Master Mix with BRYTE green (Promega, Madison, Wis.) was used, subjected to qPCR in a 7500 real time PCR system and analysed using System SDS software v2.0.5 (Applied Biosystems), using GAPDH for normalisation. Reliability of GAPDH as house-keeping gene was determined using Normfinder (Andersen et al., 2004; Cancer Res 64(15): 5245-5250) to produce the ΔCT values. […]

3D HepaRG mono-culture [2] = assay: APAP toxicity assay, cell viability by ATP (Cell titer Glo); format: cell-based; settings: Homo sapiens, 0% DMSO, read-out: APAP EC50 values (±stdev)
Procedure: (§1) APAP toxicity assay was performed in 3D HepaRG/co-culture as well as in 3D HepaRG monoculture. For 24 h, starting at day 20, cells were exposed to a range of APAP concentrations between 0.5 and 80 mM, keeping cells with the solvent (0.1% DMSO) as a control. For some experiments the culture medium was supplemented with 2.5 mM valproic acid (VPA sodium salt, Sigma-Aldrich) or with cytokine mixture (Raicevic et al.,2012)-interleukin (IL)-1β 25 ng/mL (Peprotech, Rocky Hill, N.J., USA), interferon (IFN)-γ 10^3 U/mL, tumor necrosis factor (TNF)-a 50 ng/mL, and IFN-α 3·10^3 U/mL (all from Prospec, Inc., East Brunswick, N.J., USA). For the recovery assay, at the end of APAP incubation, cells were washed using HepaRG culture 0% DMSO medium and kept in the same medium for 3 more days.
At the end of the incubation period, 5 spheroids per condition were pooled and lysed for RNA analyses, while the remaining spheroids per condition were lysed individually for viability analysis using the Cell titer Glo kit (Promega) for ATP measurements following the instructions of the manufacturer.

3D HepaRG/HSC co-culture [3] = assay: Pro-collagen measurement in culture supernatant (Type I C-Peptide); format: cell-based, human; settings: upon APAP incubation, 24 h
Procedure: (§2) Samples for pro-collagen measurement were five times concentrated using 10 kD Vivaspin 500 ultrafiltration columns (VWR, Radnor, Pa.), the resulting supernatant was analysed for the presence of Type I C-Peptide using the TAKARA (Chanteloup-en-Brie, France) kit.

3D HepaRG mono-culture [4] = assay: as above; format: cell-based, human; settings: upon APAP incubation, 24 h
Procedure: as §2

3D HepaRG/HSC co-culture [5] = assay: Single and repeated exposure, gene expression of HSC activation markers; format: cell-based, human; settings: for HSC activation (up-regulation of activation markers, mRNA): serum-free medium
Procedure: Single and repeated exposure. For the single and repeated compound exposure cell spheroids (3D HepaRG/HSC, 3D HepaRG and 3D HSC) were exposed respectively on day 20 for 24 h or every second day from day 8 to day 21 in serum-free medium with no additional solvent. Cells were exposed to a range of 8 concentrations between 0.5 and 80 mM for APAP single-dose, 0.125 and 40 mM for APAP repeated-dose, 0.3 and 500 μM Allyl Alcohol (AA, Sigma-Aldrich), 1.9 and 1000 μM Methotrexate (MTX, Pfizer, NY, USA). For the recovery assay, on day 21, cells were washed using serum-free medium and kept for 3 extra days.
For the cell culture samples, total RNA from 4-6 pooled spheroids was extracted from cells using the RNeasy Micro Kit (Qiagen, Venlo, Limburg, Netherlands). In the mouse assays, sorted HSC from different mice were lysed separately. Total RNA from tissue cultured cells was extracted using ReliaPrep RNA Cell Miniprep System (Promega).
Reverse-transcription using the Revert Aid Kit (ThermoFisher Scientific, Waltham, Massachusetts, USA) allowed conversion of RNA to cDNA. The RT reaction was performed at 25° C. for ten minutes followed by 30 minutes at 50° C. For quantitative real-time polymerase chain reaction (qPCR), GoTaq QPCR Master Mix with BRYTE green (Promega) was used, subjected to qPCR in a 7500 real time PCR system and analysed using System SDS software v2.0.5 (Applied Biosystems, Waltham, Mass., USA), using GAPDH for normalisation. Reliability of GAPDH as house-keeping gene was determined using Normfinder (Anderson et al., 2004). Fold change differences between samples were determined using the comparative Ct (δδCt) method. The expression level of different targets, relative to GAPDH (δCt) and relative to the calibrator, was given by 2^−δδCt.

3D HSC mono-culture = assay: APAP toxicity on HSC; format: cell-based, human; settings: APAP 0.5-80 mM, 24 h
Procedure: as §1, with “days. […]” for “days.”
We investigated the effect of APAP on the different cell types by measurement of the two major energy producing pathways assessing at the mitochondrial functional level. For that purpose, we measured the Oxygen Consumption Rate (OCR) and Glycolisis (through proton production—Extracellular Acidification rate, ECAR) using the XF Cell Mito Stress Test Kit (Seahorse Biosciences) 0, 12 and 24 hours of APAP incubation in the three 3D cultures. […]

With CC(=O)Nc1ccc(O)cc1 [APAP, Acetaminophen] the “activation marker gene expression in isolated HSC” value ([1]; acute and chronic exposure, doses equal or higher than 300 mg/kg weight) was “significantly increase of the activation marker gene expression”, the “fibrosis profile at the protein level (collagen)” value ([1]; chronic exposure (4 weeks)) was “deposition of collagen around the portal area with septa formation” and the EC50 (3D HepaRG mono-culture [2]; 144 h, Day 6/7, current study) was 11.6 mM. For the same compound, the EC50 (3D HepaRG mono-culture [2]; 504 h, Day 21/22, current study) was 11.6 ± 2.15 mM, the “collagen secretion (C-terminal pro-collagen in supernatant)” value (3D HepaRG/HSC co-culture [3]) was “significant increase of collagen secretion” and the “collagen secretion (C-terminal pro-collagen in supernatant)” value (3D HepaRG mono-culture [4]) was “not observed”. For the same compound, the “concentration of peak HSC activation” value (3D HepaRG/HSC co-culture [5]; repeated exposure) was 5 to 10 mM, the “HSC activation (up-regulation of activation markers, mRNA)” value (3D HepaRG/HSC co-culture [5]; repeated exposure) was “toxicity and HSC activation both in single and repeated-exposure” and the “concentration of peak HSC activation” value (3D HepaRG/HSC co-culture [5]; single exposure) was 20 to 40 mM. The “recovery of HSC 3 days after compound washout” value (3D HepaRG/HSC co-culture [5]; single exposure) was “observed”, the “HSC activation (up-regulation of activation markers, mRNA)” value (3D HepaRG/HSC co-culture [5]; single exposure 24 h) was “toxicity and HSC activation both in single and repeated-exposure” and the “toxic effect on the HSC” value (3D HSC mono-culture) was “only observed at the highest concentrations”.
